What was measured:
Assay in all cases: relative viability (nuclei count vs DMSO), 5 days (fraction); higher = more cells survive
Venetoclax + Phenformin = compound: CC1(C)CCC(CN2CCN(c3ccc(C(=O)NS(=O)(=O)c4ccc(NCC5CCOCC5)c([N+](=O)[O-])c4)c(Oc4cnc5[nH]ccc5c4)c3)CC2)=C(c2ccc(Cl)cc2)C1 [Venetoclax] + N=C(N)NC(=N)NCCc1ccccc1 [Phenformin] (partner 250 µM)
In short: (§1)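 Relative viability equals treated-well nuclei counts divided by vehicle-well nuclei counts. Counts came from 4× images of lung cancer cell lines grown in 1536-well plates for 5 days after pin-tool dosing on the day after seeding. Dosing used one drug alone or a fixed anchor-drug dose plus five library-drug doses (not always all listed) in √10 steps, and values are medians of duplicate plates.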

Selumetinib + Lapatinib = compound: Cn1cnc2c(F)c(Nc3ccc(Br)cc3Cl)c(C(=O)NOCCO)cc21 [Selumetinib] + CS(=O)(=O)CCNCc1ccc(-c2ccc3ncnc(Nc4ccc(OCc5cccc(F)c5)c(Cl)c4)c3c2)o1 [Lapatinib] (partner 2 µM)
In short: as §1

Selumetinib + Bortezomib = compound: Cn1cnc2c(F)c(Nc3ccc(Br)cc3Cl)c(C(=O)NOCCO)cc21 [Selumetinib] + CC(C)C[C@H](NC(=O)[C@H](Cc1ccccc1)NC(=O)c1cnccn1)B(O)O [Bortezomib] (partner 0.002 µM)
In short: as §1

Venetoclax + Tozasertib = compound: CC1(C)CCC(CN2CCN(c3ccc(C(=O)NS(=O)(=O)c4ccc(NCC5CCOCC5)c([N+](=O)[O-])c4)c(Oc4cnc5[nH]ccc5c4)c3)CC2)=C(c2ccc(Cl)cc2)C1 [Venetoclax] + Cc1cc(Nc2cc(N3CCN(C)CC3)nc(Sc3ccc(NC(=O)C4CC4)cc3)n2)n[nH]1 [Tozasertib] (partner 0.1 µM)
In short: as §1

Cell Line | relative viability (Venetoclax + Phenformin; first compound 0.01 µM) | relative viability (Venetoclax + Phenformin; first compound 0.03162 µM) | relative viability (Venetoclax + Phenformin; first compound 0.1 µM) | relative viability (Venetoclax + Phenformin; first compound 0.3162 µM) | relative viability (Venetoclax + Phenformin; first compound 1 µM) | relative viability (Selumetinib + Lapatinib; first compound 0.02 µM) | relative viability (Selumetinib + Lapatinib; first compound 0.06325 µM) | relative viability (Selumetinib + Lapatinib; first compound 0.2 µM) | relative viability (Selumetinib + Lapatinib; first compound 0.6325 µM) | relative viability (Selumetinib + Bortezomib; first compound 0.02 µM) | relative viability (Selumetinib + Bortezomib; first compound 0.06325 µM) | relative viability (Selumetinib + Bortezomib; first compound 0.2 µM) | relative viability (Selumetinib + Bortezomib; first compound 0.6325 µM) | relative viability (Venetoclax + Tozasertib; first compound 0.01 µM) | relative viability (Venetoclax + Tozasertib; first compound 0.03162 µM) | relative viability (Venetoclax + Tozasertib; first compound 0.1 µM) | relative viability (Venetoclax + Tozasertib; first compound 0.3162 µM) | relative viability (Venetoclax + Tozasertib; first compound 1 µM)
NCI-H23 | 0.762 | 0.751 | 0.815 | 0.8 | 0.719 | 1.24 | 1.02 | 0.825 | 0.957 | 1.34 | 0.967 | 0.721 | 0.965 | 0.492 | 0.347 | 0.368 | 0.323 | 0.418
NCI-H322M | 0.781 | 0.793 | 0.763 | 0.886 | 0.803 | 0.524 | 0.479 | 0.439 | 0.438 | 1.05 | 1.22 | 1.01 | 0.98 | 0.495 | 0.477 | 0.477 | 0.555 | 0.493
NCI-H460 | 0.424 | 0.55 | 0.478 | 0.497 | 0.461 | 0.921 | 0.709 | 0.555 | 0.399 | 0.962 | 0.684 | 0.852 | 0.458 | 0.473 | 0.387 | 0.126 | 0.266 | 0.25
NCI-H520 | 0.477 | 0.507 | 0.554 | 0.566 | 0.519 | 0.894 | 0.799 | 0.86 | 0.883 | 0.635 | 0.47 | 0.498 | 0.575 | 0.413 | 0.406 | 0.434 | 0.443 | 0.403
NCI-H596 | 0.818 | 0.665 | 0.649 | 0.809 | 0.659 | 0.961 | 1.03 | 0.921 | 0.68 | 0.92 | 0.93 | 0.835 | 0.621 | 1.05 | 0.74 | 0.966 | 0.862 | 0.847
NCI-H647 | 0.543 | 0.622 | 0.443 | 0.481 | 0.377 | 0.964 | 0.872 | 0.876 | 0.957 | 0.96 | 0.946 | 0.901 | 0.73 | 0.228 | 0.225 | 0.361 | 0.22 | 0.262
NCI-H650 | 0.439 | 0.487 | 0.438 | 0.488 | 0.435 | 1.12 | 1.24 | 1.34 | 1.37 | 1.01 | 0.995 | 1.25 | 1.17 | 0.682 | 0.719 | 0.685 | 0.697 | 0.674
NCI-H661 | 0.298 | 0.278 | 0.291 | 0.28 | 0.262 | 0.449 | 0.466 | 0.427 | 0.351 | 0.751 | 0.847 | 0.722 | 0.575 | 0.353 | 0.335 | 0.313 | 0.345 | 0.333
NCI-H727 | 0.509 | 0.63 | 0.504 | 0.625 | 0.526 | 0.562 | 0.443 | 0.349 | 0.325 | 0.58 | 0.351 | 0.359 | 0.337 | 0.765 | 0.61 | 0.496 | 0.58 | 0.58

Reference: the supplement of paper PMC10307832
